Test results: PubChem BioAssay (NCI)
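Briefly, cells in 96-well plates were exposed to five compound concentrations for 48 h, and endpoints were estimated by linear interpolation. TGI: total growth inhibition.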

How the values were obtained:
Assay in all cases: NCI tumour cell line growth inhibition, 48 h
[1] = system: OVCAR-8 ovarian
[2] = system: HS 578T breast
[3] = system: LOX IMVI melanoma
[4] = system: HOP-62 NSCLC
[5] = system: BT-549 breast
[6] = system: RPMI-8226 leukemia
[7] = system: HCT-116 colon
[8] = system: MOLT-4 leukemia
[9] = system: A498 renal
[10] = system: UACC-257 melanoma
[11] = system: SNB-19 CNS
[12] = system: TK-10 renal
[13] = system: NCI-H23 lung
[14] = system: 786-0 renal
[15] = system: RXF 393 renal
[16] = system: NCI/ADR-RES ovarian
[17] = system: NCI-H226 lung
[18] = system: SF-295 CNS
[19] = system: M14 melanoma
[20] = system: SN12C renal
[21] = system: HCC-2998 colon
[22] = system: COLO 205 colon
[23] = system: IGROV1 ovarian
[24] = system: MDA-MB-231 breast
[25] = system: K-562 leukemia
[26] = system: SK-MEL-28 melanoma
[27] = system: EKVX NSCLC
[28] = system: SNB-75 CNS
[29] = system: MCF7 breast
[30] = system: SW-620 colon
[31] = system: MDA-N
[32] = system: SK-MEL-2 melanoma
[33] = system: NCI-H460 lung
[34] = system: UACC-62 melanoma
[35] = system: HCT-15 colon
[36] = system: A549 NSCLC
[37] = system: HL-60(TB) leukemia
[38] = system: ACHN renal
[39] = system: OVCAR-3 ovarian
[40] = system: MALME-3M melanoma
[41] = system: MDA-MB-435
[42] = system: CCRF-CEM leukemia
[43] = system: T-47D breast
[44] = system: PC-3 prostate
[45] = system: SF-268 CNS
[46] = system: SR leukemia
[47] = system: SF-539 CNS
[48] = system: HOP-92 NSCLC
[49] = system: UO-31 renal
[50] = system: KM12 colon
[51] = system: DU-145 prostate
[52] = system: OVCAR-4 ovarian
[53] = system: U251 CNS
[54] = system: HT29 colon
[55] = system: NCI-H522 lung
[56] = system: SK-MEL-5 melanoma
[57] = system: SK-OV-3 ovarian
[58] = system: OVCAR-5 ovarian
[59] = system: CAKI-1 renal

Measured: TGI

CCCCOc1ccc(NC(N)=Nc2ccc(Cl)cc2)cc1
17.3 µM: [13]
23.1 µM: [35]
15.9 µM: [20]
14.7 µM: [27]
22.5 µM: [37]
2.86 µM: [4]
11.6 µM: [19] | [25]
47.6 µM: [46]
12.4 µM: [7]
2.64 µM: [21]
16.1 µM: [30]
5.21 µM: [10]
6.34 µM: [18]
16.5 µM: [55]
26.1 µM: [50]
12.7 µM: [38]
> 49.5 µM: [6]
6.52 µM: [47]
19.9 µM: [58]
12.9 µM: [45]
8.91 µM: [33]
9.6 µM: [49]
16 µM: [48]
9.73 µM: [32]
11.3 µM: [54]
21.5 µM: [53]
15.1 µM: [3]
> 42 µM: [8]
27.2 µM: [24]
0.26 µM: [22]
15.3 µM: [28]
18 µM: [12]
14.5 µM: [9]
13.6 µM: [51]
18.3 µM: [44]
23.2 µM: [14]
25.5 µM: [15]
21.3 µM: [23]
29 µM: [17]
22.7 µM: [39] | [57]
20 µM: [11]
> 35.7 µM: [42]
26.7 µM: [26]
8.34 µM: [40]
18.9 µM: [16] | [43]
25 µM: [1]
10.3 µM: [36]
17.5 µM: [52]
19.5 µM: [31]
2.1 µM: [56]
4.2 µM: [29]
21 µM: [2]
26 µM: [34]
23.4 µM: [5] | [41]

O=C1C(c2c(O)[nH]c3ccc(S(=O)(=O)O)cc23)=Nc2ccccc21
not listed: [47]
> 100 µM: all other assays above

O=C(O)[C@@H]1C[C@@H](O)CN1C(=O)OCc1ccccc1
> 100 µM: all assays above
